Series [1] concerns EBV. As to the kind of experiment: EBV DNA hybridization assay in Akata cells. It is filed as cell-based, Epstein-Barr virus.
The nature of series [2]: Cytotoxicity, EBV/Akata column. In kind it is cell-based. The following applies: human, Akata cells.
For series [3], the system named is HSV-1. The note with it: read-out: EC50 HSV-1/BSC-1; ELISA in BSC-1 cells; cited from earlier work. A general note: An ELISA detects its analyte on a solid surface through an enzyme-linked reagent.
Series [4] relates to HFF cells. The note with it: neutral red uptake, cited from earlier work.
For series [5], the system named is VZV. The following applies: cited from earlier work; for EC50: read-out: EC50 VZV/HFF, CPE assay.
The test system of series [6] is HSV-2. The following applies: read-out: EC50 HSV-2/HFF; CPE assay; cited from earlier work.
Series [7] concerns HSV-1. The following applies: read-out: EC50 HSV-1/HFF; CPE assay; cited from earlier work.
In the next series the test system is KB cells. The following applies: read-out: CC50 HSV-1/BSC-1; replicating KB cells; cited from earlier work.
A further series concerns MEF. The note with it: read-out: CC50 MCMV/MEF; cited from earlier work.
Another series deals with HCMV AD169 strain. The note with it: read-out: EC50 HCMV/HFF AD169, plaque reduction; cited from earlier work.
Series [8] has as its system HFF cells. The following applies: read-out: CC50 HCMV/HFF Towne; visual cytotoxicity of HFF; cited from earlier work.
The test system of series [9] is EBV. The following applies: read-out: EC50 EBV/Akata; DNA hybridization assay; cited from earlier work.
Series [10] concerns EBV. The following applies: read-out: EC50 EBV; Daudi cells, viral capsid antigen (VCA) assay; cited from earlier work.
In series [11] the test system is hepatitis B virus (HBV). The following applies: cited from earlier work.
For series [12], the system named is HSV-1. The note with it: read-out: EC50 HSV-1/BSC-1; plaque reduction in BSC-1 cells; cited from earlier work.
Series [13] in a line: Cytotoxicity by neutral red uptake. It is filed as cell-based. The following applies: human, HFF cells.
The test system of series [14] is HFF cells. Kind of series: Cytotoxicity by neutral red uptake. In kind it is cell-based. The following applies: read-out: CC50 HSV-1/HFF; neutral red uptake, HSV-1/HFF column.
The test system of series [15] is HCMV Towne strains with mutations in UL97. As to the kind of experiment: HCMV Towne strains with UL97 mutations. It is filed as cell-based, human cytomegalovirus. The following applies: strains E8 and 2696r.
Series [16] in a line: Cytotoxicity in replicating KB cells. It is filed as cell-based. The following applies: human.
The subject of series [17] is HCMV, MCMV, HSV-1, HSV-2, VZV, EBV, HBV, HCV. As to the kind of experiment: Antiviral panel, all tested viruses. In kind it is cell-based.
A short description of series [18]: Visual cytotoxicity of HFF's in cells unaffected by virus. It is filed as cell-based. The following applies: human, HFF cells (not affected by virus).
The test system of a further series is hepatitis C virus (HCV). As to the kind of experiment: HCV antiviral test. It is filed as cell-based.
In series [19] the test system is VZV. Kind of series: VZV CPE assay in HFF. In kind it is cell-based, varicella zoster virus.
Series [20] deals with hepatitis B virus (HBV). As to the kind of experiment: HBV antiviral test. It is filed as cell-based.
The test system of series [21] is HSV-1. As to the kind of experiment: HSV-1 CPE inhibition assay in HFF. In kind it is cell-based, herpes simplex virus type 1. The following applies: Human alphaherpesvirus 1, read-out: EC50 HSV-1/HFF.
Series [22] deals with HSV-2. As to the kind of experiment: HSV-2 CPE inhibition assay in HFF. It is filed as cell-based, herpes simplex virus type 2. The following applies: Human alphaherpesvirus 2, read-out: EC50 HSV-2/HFF.
Series [23] in a line: Cytotoxicity, MCMV/MEF column. It is filed as cell-based. The following applies: mouse, MEF cells.
The mark [24] stands for this setting: read-out: CC50 HCMV/HFF AD169, AD169 column.
Setting [25] is: read-out: CC50 HSV-1/HFF, HSV-1/HFF column.

“Also recorded” adds a separate entry of the source. Read-outs that look alike come from different tables or passages of the source.

As for `Nc1nc2c(ncn2COCCO)c(=O)[nH]1` [Acyclovir, acyclovir], the EC50 with EBV [1] (human gammaherpesvirus 4, Akata, read-out: EC50 EBV/Akata) worked out at 8.4 µM. Also, the CC50 in series [2] was > 100 µM.

On to `Nc1nc2c(ncn2/C=C2/CC2(CO)CO)c(=O)[nH]1` [Compound 2b, cyclopropavir], for which the EC50 in the series on HSV-1 [3] was > 100 µM; in the series with VZV [5] it was > 380 µM; with HSV-2 [6] it was > 380 µM; with HSV-1 [7], > 380 µM; in the series with HCMV AD169 strain it was 0.49 µM; in the series with EBV [9] it was 0.22 µM. Moreover, the CC50 with HFF cells [4] (setting [24]) was > 380 µM; in the series on HFF cells [4] (setting [25]) it was > 380 µM; with KB cells it was > 100 µM; in the series with MEF, > 380 µM; with HFF cells [8] it was > 100 µM. Moreover, the “activity against VZV” value in the series with VZV [5] (HFF) was “ineffective”.

As for `Nc1nc(O)c2ncn(/C=C3/CC34COP(=O)(O)OC4)c2n1` (stereo not shown) [Compound 10], the EC50 in the series on EBV [10] was 0.96 µM; in the series on VZV [5] it was > 301 µM; with HSV-1 [7] it was > 301 µM; in the series on HCMV AD169 strain, 6 µM; in the series on HSV-1 [12], 20 µM. The “activity against HBV” value in the series on hepatitis B virus (HBV) [11] is listed as “effective”. Besides, the CC50 in the series on HFF cells [4] (setting [24]) is > 301 µM; with HFF cells [4] (setting [25]) it was > 301 µM; in the series on KB cells, > 100 µM; in the series with MEF, > 301 µM; with HFF cells [8], > 100 µM.

As to `Nc1nc2c(ncn2/C=C2/CC2(CO)CCP(=O)(O)O)c(=O)[nH]1` (stereo not drawn) [Compound 12, (Z)-9-{[2-(Hydroxymethy)l-2-(2-phosphonoethyl)cyclopropylidene]methyl}guanine], the CC50 (in series [13]; in the series with HFF cells [14]) was > 300 µM throughout. For the same compound, the “activity against UL97 mutant strains compared with wild-type Towne HCMV” value in series [15] is “as active”.

Take `Nc1nc2c(ncn2/C=C2\CC2(CO)CCP(=O)(O)O)c(=O)[nH]1` (stereo not drawn) [Compound 13, (E)-9-{[2-(Hydroxymethy)l-2-(2-phosphonoethyl)cyclopropylidene]methyl}guanine]: the CC50 in series [2], in series [16] and in series [18] was > 100 µM in each case. For the same compound, in series [17], the “antiviral activity against all tested viruses” value is “devoid of potency; also recorded: devoid of antiviral activity”.

With `Nc1nc2c(ncn2/C=C2/CC23CCP(=O)(O)OC3)c(=O)[nH]1` (stereo not shown) [Compound 14], the “activity against HCV” value in the series on hepatitis C virus (HCV) was “inactive”. Besides, the “activity against EBV” value with EBV [1] (Akata cells) is “inactive; also recorded: ineffective”. Moreover, the “activity against VZV” value in the series with VZV [19] (HFF) is listed as “ineffective”. Moreover, in the series on hepatitis B virus (HBV) [20], the “activity against HBV” value is “inactive”. In [15], the “activity against UL97 mutant strains compared with wild-type Towne HCMV” value is on record as “as active”.

Regarding `Nc1nc2c(ncn2/C=C2\CC23CCP(=O)(O)OC3)c(=O)[nH]1` (stereo not shown) [Compound 15], the EC50 in the series on HSV-1 [21] was > 300 µM; in the series with HSV-2 [22], > 300 µM; in the series with VZV [19] (Human alphaherpesvirus 3, read-out: EC50 VZV/HFF) it was > 300 µM. Besides, the CC50 in series [2] was > 100 µM; in series [16], > 100 µM; in series [18], > 100 µM; in [13], > 300 µM; with HFF cells [14], > 300 µM. Moreover, the “antiviral activity against all tested viruses” value in series [17] was “devoid of potency; also recorded: devoid of antiviral activity”.

For `Nc1nc(O)c2ncn(COC(CO)CO)c2n1` [Ganciclovir, ganciclovir], the CC50 in series [23], in series [18] and in series [13] was > 100 µM in each case.

These data come from paper PMC2765055 (Bioorganic & medicinal chemistry, 2009).
